PMC6934184, “Selective DNA-PKcs inhibition extends the therapeutic index of localized radiotherapy and chemotherapy” (The Journal of Clinical Investigation, 2019)

Biological target: T1, EPHA2 (Homo sapiens, UniProt P29317)
T1 construct: purchased Thermo Fisher Scientific (Life Technologies) SelectScreen
Assay: SelectScreen Z'LYTE
Format: biochemical
Method in brief: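 Compound tested in SelectScreen activity assays, Z'LYTE for CSF1R, CDK1/cyclin B and MAP2K6 and Adapta for CAMK1. ATP for CAMK1 was listed as 10, and Km app was used for CSF1R. Results are expressed in percent.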

T1 sequence (P29317 24-976): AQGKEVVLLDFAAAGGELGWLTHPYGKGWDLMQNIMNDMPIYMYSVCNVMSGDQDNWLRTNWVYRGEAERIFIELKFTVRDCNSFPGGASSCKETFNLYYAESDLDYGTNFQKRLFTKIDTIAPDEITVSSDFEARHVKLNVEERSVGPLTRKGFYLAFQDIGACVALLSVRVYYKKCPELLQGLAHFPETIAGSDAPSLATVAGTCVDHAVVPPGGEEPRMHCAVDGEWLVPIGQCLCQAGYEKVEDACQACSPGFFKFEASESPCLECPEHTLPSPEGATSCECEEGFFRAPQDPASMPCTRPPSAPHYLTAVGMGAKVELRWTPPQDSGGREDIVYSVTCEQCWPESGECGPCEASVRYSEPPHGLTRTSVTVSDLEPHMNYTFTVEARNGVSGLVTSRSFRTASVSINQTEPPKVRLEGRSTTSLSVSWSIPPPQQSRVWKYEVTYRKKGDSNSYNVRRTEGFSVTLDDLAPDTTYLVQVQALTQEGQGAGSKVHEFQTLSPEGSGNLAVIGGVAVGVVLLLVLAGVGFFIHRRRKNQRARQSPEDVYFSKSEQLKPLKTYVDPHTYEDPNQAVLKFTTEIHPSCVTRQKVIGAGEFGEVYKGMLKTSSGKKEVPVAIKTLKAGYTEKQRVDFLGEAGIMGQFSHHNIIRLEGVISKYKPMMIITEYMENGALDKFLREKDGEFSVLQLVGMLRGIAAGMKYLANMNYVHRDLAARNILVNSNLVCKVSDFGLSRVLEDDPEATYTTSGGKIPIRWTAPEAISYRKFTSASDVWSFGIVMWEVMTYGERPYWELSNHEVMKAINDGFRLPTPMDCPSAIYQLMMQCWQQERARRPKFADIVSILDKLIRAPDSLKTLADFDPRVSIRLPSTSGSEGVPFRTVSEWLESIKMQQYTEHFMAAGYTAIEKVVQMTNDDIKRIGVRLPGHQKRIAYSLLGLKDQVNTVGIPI

## CN(C(=O)CN1CCOCC1)c1ccc2sc3c(-c4cccc5c(=O)cc(N6CC7CCC(C6)O7)oc45)cccc3c2c1 [NU5455]
  inhibition at 1 µM: 4.8%
